The values below come from patent US20060020036A1, “Methods and compositions to promote bone homestasis” (priority 2004, published 2006).

Molecules are shown by their SMILES. Entries after “also recorded” stand apart in the source; their conditions may differ.

One assay concerns primary human MPCs. Kind of assay: Mineralization assay (Alizarin RedS / Von Kossa). The assay is classed as cell-based. To be noted: MPCs with NR1H3 and T0901317. As to the method:
On day one, primary human MPCs are seeded in a 6 well plate (Costar or Nunc) at a density of 50,000 to 250,000 cells per well, typically at 100,000 cells per well. MPCs are co-infected one day later with AdC15-hCAR (MOI 750) and Ad-control (eGFP or BMP2) or hit-virus (Ad5) (at MOIs between 250 and 20,000, typically at MOIs 5000 and 2500). For Ad-GPCR or Ad-NHR experiments, cells can additionally be treated with specific ligands. These are added at the EC50 concentration and at concentrations 5-10 times higher and lower. Ligands are added 2-3 times per week. Medium supplemented with 100 μg/ml L-ascorbate and 10 mM beta-glycerophosphate, is refreshed 2 times a week. 20 to 30 days after the start of the experiment, cells are stained with Von Kossa stain or with Alizarin RedS stain.
The Alizarin RedS staining is carried out as follows: cells are washed once with PBS, fixed with 10% paraformaldehyde for 45 minutes at 4° C., and washed 2 times with PBS. Cells are incubated with 40 mM aqueous Alizarin RedS solution, pH 4.1-4.3 for 10 minutes followed by 5 washes with distilled water. Staining is evaluated and photographed using white light.

In assay [1] the test system is RUNX2 (DN-RUNX2) in MPCs infected with Ad-NR1H3. As to the kind of experiment: DN-RUNX2 assay (AP activity in MPCs). The assay is classed as cell-based, human. To be noted: Ad-NR1H3 in the presence of T0901317, Ad-DN-RUNX2 vs Ad-luciferase, 6 days post infection. As to the method:
MPCs are seeded at 1000 cells/well in a 384 well plate and infected the next day with adenoviruses encoding hCAR (MOI 250), Ad-BMP2 (MOIs 6000, 2000, 666) and one of Ad-DN-RUNX2 or Ad-luciferase (MOIs 2000 or 666). Alkaline phosphatase activity is read 6 days post infection.
MPCs are seeded at 1000 cells/well in a 384 well plate and are infected the next day with adenoviruses encoding hCAR (MOI 250), Ad-BMP2, Ad-ESRRG, Ad-NR5A2, Ad-NR1H3 (MOIs 6000, 2000, 666) and one of Ad-DN-RUNX2 or Ad-luciferase (MOI 1000 or MOIs 2000 and 666) (see FIG. 19 (C)). Alkaline phosphatase activity is read 6 days post infection and raw data are analysed.

Regarding `O=S(=O)(c1ccccc1)N(CC(F)(F)F)c1ccc(C(O)(C(F)(F)F)C(F)(F)F)cc1` [T0901317, N-(2,2,2-trifluoroethyl)-N-[4-[2,2,2-trifluoro-1-hydroxy-1-(trifluoromethyl)ethyl]phenyl]-benzenesulfonamide], the mineralization entry in the assay on primary human MPCs was “score well”. Besides, the “up-regulation of AP activity upon overexpression of DN-RUNX2” value in assay [1] was “overexpression of DN-RUNX2 significantly reduces the up-regulation of AP activity; also recorded: DN-RUNX2 interferes with induction of AP activity”.
